Tests used:
Format in all cases: biochemical
DNA polymerase enzymes = assay: Chromatide incorporation activity after photodamage step on planar glass substrates; conditions: relative to a non-illuminated control region; Laser Power 2.5 μW/μm^2; baseline 10 mM MEA-Ac, 0.1×GO-Cat, 25 mM Tris-Ascorbate; Trolox at 1 mM, PPD at 100 mM
Description: In the experiment, DNA polymerase enzymes were immobilized on planar glass substrates (fused silica microscope slides) and subjected to reaction conditions under which DNA synthesis was taking place. Each reaction mixture also included a baseline level of photodamage mitigating agents (10 mM MEA-Ac, 0.1×GO-Cat, 25 mM Tris-Ascorbate). The reactions were carried out under laser illumination of varying power.
Following the photodamage step, all the solution was washed from the chip and replaced with ordinary buffers and dNTPs. In addition, a base labeled fluorescent nucleotide (chromatide) was added to provide a fluorescent signal of incorporation activity following the photodamage step, above. […] The activity of the enzyme was measured based upon the relative fluorescence of the DNA on the slide.
Table 1, below provides the percent chromatide relative to a non-illuminated control region, for each different additive at the listed laser power.

[1] = system: modified φ29 DNA polymerase; assay: Bulk DNA synthesis under laser illumination, agarose gel image scanning; conditions: dye labeled tetraphosphates (reaction condition 3); 5 minute illumination; 5 mM DTT or 100 mM MEA
Description: In a first assay, synthesis reaction mixtures contained a modified φ29 DNA polymerase, 300 nM DNA template, three native nucleoside triphosphates (at 10 μM each) and a fluorescent dye labeled nucleoside polyphosphate (at 10 μM) in synthesis buffer (50 mM Tris-HCl, pH 7.5, 75 mM KCL, 20 mM (NH4)2SO4, 10 mM BME, 0.7 mM MnCl2). Each of the reactions were carried out at room temperature (22° C.) for the desired illumination period, ranging from 1 minute to one hour.
The experiment included two sets each of three different reaction mixtures: (1) a synthesis reaction using only native, e.g., unlabeled nucleoside triphosphates; (2) a synthesis reaction including two native nucleoside triphosphates, an Alexa 488 labeled dCTP analog, and an Alexa 568 labeled dTTP; and (3) a synthesis reaction including two native nucleoside triphosphates, an Alexa 488 labeled dC4P analog (tetraphosphate), and an Alexa 568 labeled dT4P. Each different synthesis reaction conditions included either no illumination or laser illumination during synthesis for five minutes with wavelengths of 488, 568 and 647 nm, followed by 60 minutes of nonilluminated synthesis. […]
The gel was subjected to image scanning (Molecular Dynamics Typhoon 9400, with Typhoon scanner Control Version 2; gel image quantified with Molecular Dynamiics ImageQuant ver. 5.2). […]

[2] = system: DNA polymerase immobilized within zero mode waveguides; assay: DNA synthesis in zero mode waveguide arrays with and without laser illumination; conditions: 160 mM DTT, without MEA; ZMW arrays
Description: A similar set of experiments to those described above were performed using DNA polymerase immobilized within zero mode waveguides in an array of waveguides. As above, the first experiment was designed to identify whether laser illumination caused damage to immobilized polymerase enzymes on nanostructured surfaces. The surfaces included ZMW arrays in which the polymerase enzyme was adsorbed to the surface. […] The illumination profile is shown in the first panel (far left), while the image of the stained DNA product in the illuminated synthesis is shown in the adjacent panel (middle left). […] The middle right and far right panels show non-illuminated waveguide arrays, and indicate substantially more DNA is present than in the illuminated sample, again showing photo-induced damage to the polymerase activity in the waveguide arrays. FIG. 4B illustrates a first set of waveguide arrays in which similar synthesis reactions were carried out in the presence of no additional mitigation agents (e.g., only 10 mM βME), or in the presence of 5 mM DTT and 100 mM MEA.

Row | Structure (SMILES) | % Chromatide activity (DNA polymerase enzymes) [%] | ratio of product when exposed to laser illumination to that in the absence of such illumination [1] | amount of damaged polymerase activity [2]
1 | C1CN2CCN1CC2 [DABCO, diazobicyclooctane] | 20 |  | 
2 | Cc1cc(C(C)(C)C)c(O)c(C(C)(C)C)c1 [BHT, butylated hydroxytoluene] | 22 |  | 
3 | Cc1c(C)c2c(c(C)c1O)CCC(C)(C(=O)O)O2 (stereo not shown) [Trolox] | 41 |  | 
4 | NCCS [MEA, mercaptoethylamine] |  | 1.04 | 
5 | O[C@H](CS)[C@H](O)CS (racemic) [DTT, dithiothreitol] |  | 0.59 | improvements
6 | Nc1ccc(N)cc1 [PPD, p-phenylenediamene] | 58 |  | 

— US8415128B2, “Mitigation of photodamage in analytical reactions” (Pacific Biosciences of California, Inc., priority 2005, dated 2013)
